# Data taken from patent US11241434B2, “Compositions and methods for improving cognition in a subject” (Yale University, priority 2013, dated 2022).
# Test system: mice with closed head injury (CHI) and chronic variable stress (CVS)
# Test: Immunohistochemistry of cerebral cortex after head injury plus stress
# Assay type: in vivo, mouse
# Settings: subacute TBI/Stress mice
# Text: FIGS. 16A-16F illustrate the finding that AZD0530 treatment prevents phospho-Tau accumulation after head injury plus stress. […] Boxed area is shown at higher magnification inset. Scale bar, m. FIG. 16B: PHF-1 IHC quantification using ImageJ software measuring total stained area, yielded significant differences amongst the three groups. Data are mean±SEM. n=5/group, each dot is one mouse. One way ANOVA: F(2,12)=9.967, p=0.0028, Tukey's multiple comparison test: SV vs IV: p=0.0077, IV vs IA: p=0.0046. […] Scale bar, 20 μm. […] Data are mean±SEM. n=5/group, each dot is one mouse. […] Scale bar, 20 μm. […] Data are mean±SEM. n=5/group, each dot is one mouse.
# Immunohistochemistry was performed as previously described (Kaufman et al., 2015, Ann Neurol 77:953-971) with slight modifications. Forty m coronal sections of the right hemisphere were cut with a Leica VT1000S Vibratome. Antigen retrieval was performed on the forty m free-floating sections by incubating three slices from each mouse in 1× Reveal decloaker buffer (Biocare Medical) in 24-well-plates for 10 minutes at 90° C. in an oven and then cooled down at room temperature for 10 minutes. The antigen retrieval step was done for PHF1, AT8, and GFAP stainings. Sections were permeabilized with 0.1% Triton X-100 at room temperature for 5 minutes for PHF1 and SV2A staining and for 30 minutes for CD68/Ibal, AT8, and GFAP. All sections were blocked with 10% donkey, horse, or goat serum in PBS for one hour at room temperature. The sections were then incubated in primary antibody in 4% donkey, horse, or goat serum in PBS overnight at room temperature. For SV2A and PHF1 stainings, primary antibodies were incubated at 4° C. rather than room temperature. […]
# For imaging and analysis of sections from the transgenic Tauopathy studies, Nikon Eclipse Ti Spinning Disc Confocal Microscope was used with a 40×1.3 NA oil-immersion lens in Cargille immersion oil. […] The dentate gyrus, CA1, and CA3 of mice were imaged and the percent positive area for each staining was analyzed with a macro in ImageJ or a pipeline in CellProfiler. […]
smiles,measurement,setting,value
"CN1CCN(CCOc2cc(OC3CCOCC3)c3c(Nc4c(Cl)ccc5c4OCO5)ncnc3c2)CC1 [saracatinib, N-(5-chloro-benzo[d][1,3]dioxol-4-yl)-7-(2-(4-methylpiperazin-1-yl)ethoxy)-5-(tetrahydro-2H-pyran-4-yloxy)quinazolin-4-amine]",PHF-1 immunoreactivity area in cerebral cortex,0.5-1.0 mm medial to injury site,dramatically reduced
same,GFAP IHC % area,three groups,did not result in groups differences
same,total Tau IHC mean intensity,three groups,did not show significant differences
